Patent US8951760B2, “Method for producing an L-amino acid” (priority 2010, dated 2015)

Test system: L-lysine-producing bacterium, WC196 LC/pCABD2 strain
Assay: L-lysine production culture in small fermentation tank with addition of thiourea or urea to the medium
Type: cell-based, Escherichia coli
Protocol: The glycerol stock of the L-lysine-producing bacterium, WC196 LC/pCABD2 strain, was inoculated in an amount of one loop to the LB agar medium (1% of tryptone, 0.5% of yeast extract, 0.5% of sodium chloride, 1.5% of agarose) containing 20 mg/L of streptomycin, and cultured at 37° C. for 24 hours as static culture.
The cells grown in the aforementioned preculture were scraped off from the medium, suspended in a 0.85% NaCl aqueous solution, and inoculated into 300 mL of MS glucose liquid fermentation medium or MS fatty acid liquid fermentation medium having the following compositions and contained in a small fermentation tank having a total volume of 1 L at a turbidity of 0.04 measured at a wavelength of 600 nm to start the culture. With the MS glucose liquid fermentation medium, the culture was performed at a culture temperature of 37° C. and a stirring rate of 300 rpm for 16 hours with the addition of 20 mg/L of streptomycin and aeration of compressed air sterilized with a sterilization filter at 1 vvm. Furthermore, pH was maintained at 6.7 with ammonia gas. With the MS fatty acid liquid fermentation medium, the culture was performed at a culture temperature of 37° C. and a stirring rate of 700 rpm for 42 hours with addition of 20 mg/L of streptomycin and aeration of compressed air sterilized with a sterilization filter at 1 vvm. Furthermore, pH was maintained at 6.7 with ammonia gas.
The culture was performed with adding 1 mM or 5 mM thiourea as an antioxidant at the time of the start of the culture. As controls, the culture was performed under a condition in which thiourea was not added (referred to as a thiourea-free condition), and a condition in which urea was added at the same concentrations as thiourea (referred to as a urea addition condition).
During the culture, an appropriate volume of each liquid medium was sampled, and the amount of L-lysine in the culture supernatant was measured with a Biotech Analyzer AS310 (Sakura SI). Complete consumption of the oleate added to the medium was confirmed by using a gas chromatograph GC-2014 (Shimadzu). Complete consumption of the glucose added to the medium was separately confirmed by using a Biotech Analyzer AS310. Furthermore, a Tween 80 solution was added at a final concentration of 1.0% (v/v) immediately after the end of the culture, the resultant was appropriately diluted, and turbidity was measured at a wavelength of 600 nm to measure cell amount at the time of the end of the culture.

[1] = carbon source fatty acid (sodium oleate), additive 1 mM
[2] = carbon source fatty acid (sodium oleate), additive 5 mM
[3] = carbon source glucose, additive 1 mM
[4] = carbon source glucose, additive 5 mM

| Compound | Culture time required for consumption of carbon source [1] [h] | L-Lysine accumulation at the end of culture [1] [g/L] | OD600 at the end of culture [1] | Culture time required for consumption of carbon source [2] [h] | L-Lysine accumulation at the end of culture [2] [g/L] | OD600 at the end of culture [2] | Culture time required for consumption of carbon source [3] [h] | L-Lysine accumulation at the end of culture [3] [g/L] | OD600 at the end of culture [3] | Culture time required for consumption of carbon source [4] [h] | L-Lysine accumulation at the end of culture [4] [g/L] | OD600 at the end of culture [4] |
| --- | --- | --- | --- | --- | --- | --- | --- | --- | --- | --- | --- | --- |
| NC(N)=S [Thiourea, thiourea] | 33.0 | 5.2 | 7.3 | 33.0 | 5.2 | 7.5 | 16.0 | 4.7 | 5.3 | 16.0 | 4.7 | 5.2 |
| NC(N)=O [Urea, urea] | 41.5 | 4.8 | 6.8 | 41.5 | 4.8 | 6.9 | 16.0 | 4.6 | 5.2 | 16.0 | 4.6 | 5.2 |
